This is an account of results in US20170283458A1, “COLLAGEN-BINDING SYNTHETIC PEPTIDOGLYCANS FOR WOUND HEALING” (Symic Biomedical, Inc., priority 2009, published 2017).

Ends that are not written are not given here.

What all share (type): in vivo
Data set [1] concerns Long-Evans rats. In words: Rat incisional model, visual scar scoring (visible scar length). As for the experimental part:
(§1) Using sterile techniques, longitudinal wounds were incised on shaved dorsal skin of the rats. A 4 cm incision was cut through the panniculus down to the skeletal musculature, and a 250 μL single dose of either 10 mg/mL hyaluronic acid (HA) or HA+DS-SILY was applied to the open wound by a syringe. DS-SILY was tested at 0.5, 1, and 2.5 mg/mL mixed with HA. The incision was then sutured closed and animals were returned to individual cages and monitored for complications. Negative control rats received no treatment and were treated identically. A pilot study was performed (n=3) at time points 3, 7, 10, 14, and 21 days, followed by a higher powered study (n=9) for 21 and 28 day time points.
Photographs of scars were taken at the time of necropsy using a digital camera with predetermined manual settings mounted on a camera stand to standardize focal distance
(FIG. 36). A scale bar was included in each image and was used to determine the visible scar length. At the 21 and 28-day times points, five blinded observers traced the visible scar length using ImageJ software (NIH) to give a quantitative measure of visual scar healing.

The subject of data set [2] is Long-Evans rats. The data set can be described thus: Rat incisional model, tensile testing of scar (scar strength). As for the experimental part:
as §1
At a predetermined time after surgery (3-28 days) the animals were euthanized. Photographs of the incision were obtained, and the dermal wound including a 1 inch area around the wound edge was excised and cut into 4mm wide strips using a custom cutting device with fixed blades. Relevant tissues were harvested for tensile strength testing and histologic study.
Based on these findings, a full powered (n=9 rats/treatment) was performed using the later time points 21-day and 28-day, and comparing the same low dose, but modifying the high dose to 0.25 mg DS-SILY. DS-SILY was delivered with HA in each study and the negative control received no treatment.
Following necropsy, 4 mm skin strips (n=4 per animal) were placed in 1×PBS and kept at 4° C. for up to 6 hours. The wound breaking strength was measured at time points from 3 to 21 days. Skin samples were loaded onto a mechanical testing system (Test Resources, mode:100P/Q) such that the incision was orthogonal to the grips. Samples were loaded under tension with a rate of 5 mm/min to failure. […] No differences were observed between the low and high peptidoglycan concentrations.

Data set [3] concerns Long-Evans rats. The data set can be described thus: Rat incisional model, H&E histological scoring for inflammation. As to conditions: low and high doses, all time points. As for the experimental part:
as §1, with “points. […]” for “points.”
(§2) H&E stained samples were examined for inflammation by a board certified pathologies blinded to the treatments following a scale adapted from Simhon et al. Trichrome stained samples were evaluated for scar tissue formation by an observer blinded to the treatments using a method established by Beausang et al. in which collagen orientation, density, and maturation are observed and compared to collagen of healthy tissue. A total of 12 tissue samples were analyzed for each study at each time point. Statistics were analyzed by ANOVA using Design Expert software (StatEase, Minneapolis, Minn.). […]

The test system of data set [4] is Long-Evans rats. The data set can be described thus: Rat incisional model, trichrome histological scoring of scar tissue (Beausang). As to conditions: 21-days post-injury; 0.125 mg and 0.625 mg; vs untreated wounds. As for the experimental part:
as §1, with “points. […]” for “points.”
as §2

For “DS-SILY: collagen-binding peptidoglycan in which a single SILY peptide was conjugated to dermatan sulfate via PDPH (RRANAALKAGELYKSILYGC; also: single peptide conjugated to dermatan sulfate via PDPH, site not given here)”, the visible scar length entry is “decreased visible scar length measured by 5 blinded observers was significant” in data set [1] (21 days, both doses (0.125 mg, 0.25 mg)) and “not significant at 28 days compared to HA control” in data set [1] (28 days, high dose (0.25 mg)). Also, the wound breaking strength entry in data set [2] (21 days post-injury, vs untreated or HA treated wounds) is on record as “significant increase in wound breaking strength when compared to untreated or HA treated wounds”. Moreover, the scar strength result in data set [2] (full powered study, 0.125 mg and 0.25 mg with HA, 21-days) is on record as “increased scar strength over no treatment”; in data set [2] (full powered study, 0.125 mg and 0.25 mg with HA, 28-days), “significantly higher compared to the HA control, but was not different from no treatment”; in data set [2] (pilot study, low (0.125 mg) and high (0.625 mg) dose delivered with HA, 21-days), “significantly increases scar strength”. For the same substance, the “inflammatory response (histological scoring)” value is “does not cause an adverse immune response” in data set [3] and “did not have any adverse inflammatory effect” in data set [3] (listed as peptidoglycan). In addition, the “histological score for collagen maturity and organization (scar tissue)” value in data set [4] is “significantly lower scores”.
